Laboratory results: patent publication US5837686A, “Peptides and antibodies for treatment of rheumatoid arthritis” (Peptide Therapeutics Limited, priority 1991, dated 1998)
Ends that are not written are not given here.

What was measured:
IgA-α1 AT complex = assay: HPLC analysis of dissociation of purified IgA-α1 AT complex in vitro; format: biochemical, human; conditions: for HPLC minimum: Table 6, minimum concentration giving complex: free IgA ratio of 20%, >500 = no dissociation at highest concentration tested; for anti-complex activity (in words): summary statements after Tables 2-6
Experimental: The ability of the peptides of the invention to dissociate purified IgA-α1 AT complex in vitro was tested as described below. The anti-rheumatic drug D-penicillamine and other synthetic peptides were used as controls. […] The sample was monitored at wavelength 206 nm at a flow rate of 1 ml/minute with phosphate buffer (0.1M) pH 7.1. They represent the ability of the peptides to dissociate the IgA-α1 AT complex in vitro. In these experiments, the base-lines level comprises a complex: free IgA ratio of 14%. The minimum concentration of peptide taken to produce a positive dissociation effect is that which results in a complex: free IgA ratio at 20%. In the results tables, all the peptide values are expressed in μMoles.

[1] = test system: alternative complement (C3) pathway; assay: Inhibition of C3-activation (IgA-α1 AT complex activation of alternative complement pathway, rabbit RBC lysis); format: biochemical, human; conditions: for C' minimum: Table 6, minimum concentration needed to prevent C3 activation
Experimental: Various peptides were tested for their ability to prevent the IgA-α1 AT complex from activating the alternative complement (C3) pathway. […] This method was based on the method described by Riches and Stanworth, Immunology Letters, 1980, 1, 363,366, with modification to miniaturise it thus allowing the assay to be carried out on microtitre plates. The initial observation by […] and Ishizaka (J Immunol. […] The non-immune complex IgA-α1 AT had been shown in the past to be the only known soluble complex to activate the alternative pathway complement and inhibit the lysis of the rabbit erythrocytes. This inhibition required biologically active complex. […] Positive and negative controls, serum only controls and serum plus IgA-α1 AT complex controls were included in the assay. 25 μl of a suitable dilution of IgA-α1 AT complex (see (iii) above) was added to the test wells and the plates were centrifuged at 2000 rpm for 1 minute. The plates were then incubated at 37° C. for 11/2 hours. 50 μl of a suitable serum dilution (see (a) above) was added and the plates centrifuged at 2000 rpm for 10 minute, then incubated at 37° C. for 30 minutes. 50 μl of 1% rabbit RBC was added and after a further 30 minutes of 37° C. incubation, the plates were centrifuged at 2000 rpm for 10 minutes. Supernatants were taken as previously. The mean values of each of the serum(s), serum and complex (c+s) and total haemolysis wells were calculated. The % haemolysis with respect to lysis by serum wells was calculated. The peptide was considered to have titred out when % lysis value was equal to the calculated % lysis value given by the c+s mean. The titre point for the peptide was calculated as the concentration in μM of the peptide that just gave greater lysis than the c+s mean value.

| Compound | HPLC minimum (IgA-α1 AT complex) | anti-complex activity (in words) (IgA-α1 AT complex) | C' minimum [1] | HPLC % (IgA-α1 AT complex; Table 1, minimum peptide concentration giving complex: free IgA ratio of 20% (base-line 14%), 90 minutes at 37° C.) | C' ([1]; Table 1, minimum concentration of peptide needed to prevent C3 activation) |
| --- | --- | --- | --- | --- | --- |
| N[C@@H](CCC(=O)N[C@@H](CS)C(=O)NCC(=O)O)C(=O)O [Glutathione] | 500 µM | relatively inactive | 31 µM | – | – |
| N[C@@H](CS)C(=O)O [Cysteine] | 250 µM | – | 16 µM | – | – |
| HGCGGGGnh2 [Peptide 168] | – | – | – | 10 µM | 8 µM |
| CC(=O)N[C@@H](CS)C(=O)O [N-acetyl Cysteine] | 500 µM | relatively inactive | 4 µM | – | – |
| CC(C)(S)[C@@H](N)C(=O)O [D-Penicillamine] | 250 µM | – | 31 µM | – | – |
| Substance P (RPKPQQFFGLM; ends and bridges not checked; UniProt P20366 58-68, looked up) [control peptide of Group 6] | > 500 µM | – | > 500 µM | – | – |
